Key:
AP-1 = details: M1619 cells, overnight, 10-20 μmoles/L
[1] = system: M1619 malignant melanoma cells; experiment: Proliferation of cultured cells with oxidase inhibitors (MTT assay); type: cell-based, human; details: for Melanoma growth: M1619, data not shown
NF-κB p65 = details: M1619 cells, 50 μmol/L overnight
p65 component of NF-κB = details: M1619 cells, 50 μmol/L overnight
[2] = system: cyclic-AMP responsive element (CRE); details: M1619 cells, overnight, 10, 15, 20 μmoles/L; P<0.001 vs untreated
IκBα = details: M1619 cells, 25 μmoles/L overnight
OCT-1 = details: M1619 cells, overnight, 10-20 μmoles/L
NF-κB = details: M1619 cells, 50 μmol/L overnight; P<0.001 by densitometry
[3] = system: M1619 malignant melanoma cells; details: Brar and co-workers; cited from earlier work
[4] = system: H596 non-small-cell lung cancer cells; details: Brar et al. (2001); cited from earlier work
M1619 cells = experiment: Proliferation after transfection of p22phox or NOX4 sense/antisense oligonucleotides (MTT assay); type: cell-based, human; details: 2 μg oligonucleotide, 6 hours transfection, 48 hours growth, P<0.01

c1ccc2c(c1)[I+]c1ccccc1-2 [DPI, diphenylene iodonium]
DNA binding to the AP-1 oligonucleotide consensus sequence (AP-1): does not inhibit
inhibition at 50 µM ([1]; Homo sapiens, after 48 hours, highest dose (50 μmol/L), 10% FBS, P<0.001, read-out: Inhibition of M1619 malignant melanoma cell growth): 86 ± 0.5%
Constitutive nuclear translocation of NF-κB (anti-p65 staining in nuclei) (NF-κB p65): reduces constitutive nuclear translocation of NF-κB
Immunoreactive p65 in nuclear protein (p65 component of NF-κB): reduces immunoreactive p65 in nuclear protein
CRE DNA binding activity of nuclear protein [2]: inhibits CRE-binding activity in a dose-dependent manner
Phosphorylation of the NF-κB inhibitor IκBα (serine 32) (IκBα): decreased phosphorylation
DNA binding to the OCT-1 oligonucleotide consensus sequence (OCT-1): does not inhibit
Constitutive NF-κB DNA binding (NF-κB): greatly reduced

Oc1ncnc2[nH]ncc12 [allopurinol]
Melanoma growth ([1]; 1 mmol/L): unaffected

O=c1oc2ccccc2c(O)c1Cc1c(O)c2ccccc2oc1=O [dicumarol]
Cellular proliferation in M1619 malignant melanoma cells [3]: inhibition
Growth of H596 non-small-cell lung cancer cells [4]: inhibited growth

N=C(NCCC[C@H](N)C(=O)O)N[N+](=O)[O-] [ω-nitro-L-arginine]
Melanoma growth ([1]; 100 μmol/L): unaffected

NOX4 antisense oliogonucleotides: antisense 5′-AGCTCCTCCAGGACACAGCC-3′ based on NOX4 gene-specific sequence (listed as DNA, chemistry not given here)
Subsequent growth compared with sense oligonucleotides (M1619 cells): significantly reduced subsequent growth

p22^phox antisense oliogonucleotides: previously reported antisense 5′-GATCTGCCCCATGGTGAGGACC-3′ for p22phox mRNA (listed as DNA, chemistry not given here)
Subsequent growth compared with sense oligonucleotides (M1619 cells): significantly reduced subsequent growth
